The source of these data is ChEMBL document CHEMBL4138210, “Synthesis and biological evaluation of some novel diastereoselective benzothiazole β-lactam conjugates” (Eur J Med Chem, 2018).

One data set concerns Pseudomonas aeruginosa. Nature of the data set: Antimicrobial activity against Pseudomonas aeruginosa PAO1 after 24 to 48 hrs by broth serial dilution method. In kind it is functional.
Data set [1] is described as follows: Cytotoxicity against human HepG2 cells assessed as cell viability after 72 hrs by MTT assay relative to control. Also noted: concentration or dose not given beside the values. Conditions: read-out: Activity. In kind it is cell-based. On the technique in general: Formazan colour is commonly taken as a measure of viable cells.
For the next data set, the system named is Plasmodium falciparum. Nature of the data set: Antimalarial activity against Plasmodium falciparum K1. The format is functional, organism-based.
Data set [2] can be described thus: Hemolytic activity against human RBC at 250 uM after 1 hr relative to control. In kind it is ADME, cell-based, Erythrocyte. Conditions: red blood cells (erythrocytes), read-out: Activity.
The test system of the next data set is Escherichia coli. The data set is described as follows: Antimicrobial activity against Escherichia coli ATCC […] after 24 to 48 hrs by broth serial dilution method. In kind it is functional.
In a further data set the test system is Staphylococcus aureus. Nature of the data set: Antimicrobial activity against Staphylococcus aureus ATCC 25923 after 24 to 48 hrs by broth serial dilution method. In kind it is functional.
[3] abbreviates: Plasmodium falciparum, K1, read-out: IC50.

In brackets after ≈: the same amount, converted by molar mass. A value given as a limit tells only on which side of the number the result lay.

Regarding `CCOc1ccc(N2C(=O)[C@H](Oc3ccc(-c4nc5ccccc5s4)cc3)[C@@H]2c2ccc([N+](=O)[O-])cc2)cc1`, the minimal inhibitory concentration (MIC) – broadly, the smallest concentration in the dilution series that meets the test's criterion for growth inhibition – against Pseudomonas aeruginosa is above 200 µg/mL; in the data set on Escherichia coli, above 200 µg/mL; against Staphylococcus aureus it was 215 µg/mL (≈ 400 µM). For the same compound, in data set [1], the viability at 72 h came to 74.8%. Moreover, the IC50 (commonly the point on the concentration scale where inhibition reaches its midpoint) in the data set with Plasmodium falciparum (setting [3]) was determined as 11.8 µM. Besides, the hemolysis at 1 h, 250 µM in data set [2] worked out at 2.29%.

Turning to `COc1ccc(N2C(=O)[C@H](Oc3ccc(-c4nc5ccccc5s4)cc3)[C@@H]2c2c3ccccc3cc3ccccc23)cc1`, the MIC was above 200 µg/mL in the data set with Pseudomonas aeruginosa, above 200 µg/mL against Escherichia coli and 231 µg/mL (≈ 399 µM) with Staphylococcus aureus. In addition, in the data set with Plasmodium falciparum, the IC50 result is “Nd(Insoluble)”. Further, in data set [2], the hemolysis at 1 h, 250 µM came to 0.89%.

On to `COc1ccc(N2C(=O)[C@H](Oc3ccc(-c4nc5ccccc5s4)cc3)[C@@H]2c2ccc(Cl)cc2)cc1`, for which the minimum inhibitory concentration (MIC) in the data set with Pseudomonas aeruginosa was above 200 µg/mL; against Escherichia coli it was above 200 µg/mL; with Staphylococcus aureus, 205 µg/mL (≈ 400 µM). Moreover, the IC50 in the data set with Plasmodium falciparum (setting [3]) worked out at 40.7 µM. Besides, the hemolysis at 1 h, 250 µM in data set [2] turned out to be 0.93%.

As to `Cc1ccc(N2C(=O)[C@H](Oc3cccc(-c4nc5ccccc5s4)c3)[C@@H]2c2ccc(Cl)cc2)cc1`, the MIC in the data set with Pseudomonas aeruginosa was above 200 µg/mL; against Escherichia coli, above 200 µg/mL; against Staphylococcus aureus, 199 µg/mL (≈ 400 µM). For the same compound, the IC50 in the data set with Plasmodium falciparum (setting [3]) was determined as 76.7 µM. In data set [2], the hemolysis at 1 h, 250 µM turned out to be 1.13%.

Turning to `COc1ccc(N2C(=O)[C@H](Oc3ccc(-c4nc5ccccc5s4)cc3)[C@@H]2c2cccc([N+](=O)[O-])c2)cc1`, the MIC in the data set on Pseudomonas aeruginosa was above 200 µg/mL; against Escherichia coli, above 200 µg/mL; in the data set on Staphylococcus aureus, 26 µg/mL (≈ 49.7 µM). For the same compound, the viability at 72 h in data set [1] was 62.8%. The IC50 in the data set on Plasmodium falciparum (setting [3]) turned out to be 17.7 µM. The hemolysis at 1 h, 250 µM in data set [2] is 1.02%.

With `COc1ccc(N2C(=O)[C@H](Oc3ccc(-c4nc5ccccc5s4)cc3)[C@@H]2c2ccc(OC)c(OC)c2)cc1`, the MIC against Pseudomonas aeruginosa is above 200 µg/mL; against Escherichia coli, above 200 µg/mL; against Staphylococcus aureus, 215 µg/mL (≈ 399 µM). For the same compound, in data set [1], the viability at 72 h was determined as 70.1%. Also, the IC50 in the data set on Plasmodium falciparum (setting [3]) came out at 9.5 µM. Also, the hemolysis at 1 h, 250 µM in data set [2] was 0.82%.

In the case of `CC(C)c1ccc([C@H]2[C@@H](Oc3ccc(-c4nc5ccccc5s4)cc3)C(=O)N2c2ccc(N(C)C)cc2)cc1`, the MIC in the data set with Pseudomonas aeruginosa was above 200 µg/mL; in the data set on Escherichia coli, above 200 µg/mL; against Staphylococcus aureus, 107 µg/mL (≈ 200 µM). Also, the IC50 with Plasmodium falciparum (setting [3]) was above 125 µM. For the same compound, the hemolysis at 1 h, 250 µM in data set [2] was 1.03%.

Consider `COc1ccc(N2C(=O)[C@H](Oc3cccc(-c4nc5ccccc5s4)c3)[C@@H]2c2ccc([N+](=O)[O-])cc2)cc1`, for which the MIC in the data set with Pseudomonas aeruginosa was above 200 µg/mL; in the data set with Escherichia coli it was above 200 µg/mL; with Staphylococcus aureus, 26 µg/mL (≈ 49.7 µM). In data set [1], the viability at 72 h came out at 99.5%. Further, the IC50 with Plasmodium falciparum (setting [3]) was above 125 µM. The hemolysis at 1 h, 250 µM in data set [2] worked out at 1.56%.

With `COc1ccc(N2C(=O)[C@H](Oc3cccc(-c4nc5ccccc5s4)c3)[C@@H]2c2ccc(Cl)cc2)cc1`, the values for the MIC in the data set with Pseudomonas aeruginosa, against Escherichia coli and against Staphylococcus aureus were above 200 µg/mL, above 200 µg/mL and 205 µg/mL (≈ 400 µM), respectively. The IC50 in the data set on Plasmodium falciparum (setting [3]) worked out at 20.4 µM. Further, the hemolysis at 1 h, 250 µM in data set [2] came out at 2.8%.

Turning to `Cc1ccc(N2C(=O)[C@H](Oc3ccc(-c4nc5ccccc5s4)cc3)[C@@H]2c2ccc(Cl)cc2)cc1`, the MIC in the data set on Pseudomonas aeruginosa is above 200 µg/mL; against Escherichia coli it was above 200 µg/mL; in the data set on Staphylococcus aureus, 199 µg/mL (≈ 400 µM). For the same compound, the IC50 in the data set on Plasmodium falciparum (setting [3]) stood at 31.1 µM. Also, the hemolysis at 1 h, 250 µM in data set [2] came out at 1.16%.

On to `COc1ccc(N2C(=O)[C@H](Oc3ccc(-c4nc5ccccc5s4)cc3)[C@@H]2c2ccc([N+](=O)[O-])cc2)cc1`, for which the MIC in the data set on Pseudomonas aeruginosa was above 200 µg/mL; against Escherichia coli, above 200 µg/mL; against Staphylococcus aureus, 26 µg/mL (≈ 49.7 µM). Besides, in data set [1], the viability at 72 h was determined as 71.4%. In addition, in the data set on Plasmodium falciparum (setting [3]), the half-maximal inhibitory concentration (IC50) is 10.4 µM. Further, in data set [2], the hemolysis at 1 h, 250 µM came out at 1.11%.

For the compound `O=C1[C@H](Oc2ccc(-c3nc4ccccc4s3)cc2)[C@H](/C=C/c2ccccc2)N1c1ccc(Cl)cc1`, the values for the MIC against Pseudomonas aeruginosa, against Escherichia coli and with Staphylococcus aureus were above 200 µg/mL, above 200 µg/mL and 204 µg/mL (≈ 401 µM), respectively. In addition, the IC50 in the data set on Plasmodium falciparum (setting [3]) was 60.5 µM. Besides, the hemolysis at 1 h, 250 µM in data set [2] was determined as 2.18%.

In the case of `O=C1[C@H](Oc2ccc(-c3nc4ccccc4s3)cc2)[C@H](c2ccc3ccccc3c2)N1c1ccccc1`, the MIC was above 200 µg/mL in the data set on Pseudomonas aeruginosa, above 200 µg/mL in the data set with Escherichia coli and 30 µg/mL (≈ 60.2 µM) in the data set on Staphylococcus aureus. In addition, the viability at 72 h in data set [1] was 58%. In addition, the IC50 with Plasmodium falciparum (setting [3]) is 16.3 µM. Also, the hemolysis at 1 h, 250 µM in data set [2] came to 0.87%.

Consider `CCOc1ccc(N2C(=O)[C@H](Oc3cccc(-c4nc5ccccc5s4)c3)[C@@H]2c2ccc([N+](=O)[O-])cc2)cc1`, for which the MIC was above 200 µg/mL with Pseudomonas aeruginosa, above 200 µg/mL against Escherichia coli and 215 µg/mL (≈ 400 µM) in the data set on Staphylococcus aureus. Besides, in data set [1], the viability at 72 h was 101%. In addition, in the data set with Plasmodium falciparum (setting [3]), the IC50 worked out at 6 µM. In data set [2], the hemolysis at 1 h, 250 µM stood at 1.02%.

For `COc1cc(N2C(=O)[C@H](Oc3ccc(-c4nc5ccccc5s4)cc3)[C@@H]2c2ccc([N+](=O)[O-])cc2)cc(OC)c1OC`, the MIC with Pseudomonas aeruginosa is above 200 µg/mL; in the data set on Escherichia coli, above 200 µg/mL; in the data set with Staphylococcus aureus, 29 µg/mL (≈ 49.7 µM). The viability at 72 h in data set [1] was found to be 62.4%. Further, in the data set with Plasmodium falciparum, the IC50 entry is “Nd(Insoluble)”. For the same compound, the hemolysis at 1 h, 250 µM in data set [2] turned out to be 1.09%.

For the compound `Cc1ccc(N2C(=O)[C@H](Oc3ccc(-c4nc5ccccc5s4)cc3)[C@@H]2c2ccc([N+](=O)[O-])cc2)cc1`, the MIC with Pseudomonas aeruginosa is above 200 µg/mL; in the data set with Escherichia coli it was above 200 µg/mL; with Staphylococcus aureus, 25 µg/mL (≈ 49.3 µM). Besides, the viability at 72 h in data set [1] was 80.7%. In addition, the IC50 in the data set with Plasmodium falciparum (setting [3]) came to 11.4 µM. The hemolysis at 1 h, 250 µM in data set [2] amounted to 1.25%.
